Assay results from US9249102B2 (priority 2012, dated 2016).

Key:
[1] = test system: Haemonchus contortus; experiment: Method A: Haemonchus contortus L1 larvae, microtitre plate screen; conditions: 96 h, read-out: motility inhibition
[2] = test system: microfilaria of Dirofilaria immitis; experiment: Method F: microfilaria of Dirofilaria immitis, survival at 24 hours; conditions: survival of microfilaria at 24 hours

Question: What does the source list for `O=C(COc1ccc(Nc2ccc([N+](=O)[O-])c(C(F)(F)F)c2)cc1)N1CCN(Cc2cc3cc(C(F)(F)F)ccc3o2)CC1` [Compound 188, 2-(4-[[4-nitro-3-(trifluoromethyl)phenyl]amino]phenoxy)-1-(4-[[5-(trifluoromethyl)-1-benzofuran-2-yl]methyl]piperazin-1-yl)ethan-1-one]?
Answer: inhibition at 5 µg/mL [1]: ≥ 90%; EC50 [2]: < 5 mg/L

Question: With `N#Cc1ccc(NC2CCN(C(=O)CCCN3CCN(c4ccc5cc(F)ccc5c4)CC3)CC2)cc1C(F)(F)F` [Compound 18, 4-[(1-[4-[4-(6-fluoronaphthalen-2-yl)piperazin-1-yl]butanoyl]-piperidin-4-yl)amino]-2-(trifluoromethyl)benzonitrile] as the compound, how does the inhibition at 5 µg/mL [1] read?
Answer: ≥ 90%

Question: And the EC50 [2]?
Answer: < 1 mg/L

Question: `O=C(CO[C@H]1CC[C@H](Nc2ccc([N+](=O)[O-])c(C(F)(F)F)c2)CC1)N1CCN(c2ccc3cc(F)ccc3c2)CC1` [Compound 17, 1-[4-(6-fluoronaphthalen-2-yl)piperazin-1-yl]-2-[(4-[[4-nitro-3-(trifluoromethyl)phenyl]amino]cyclohexyl)oxy]ethan-1-one] was tested. Which inhibition at 5 µg/mL [1] did it give?
Answer: ≥ 90%

Question: What about the EC50 [2] of the same compound?
Answer: < 1 mg/L

Question: `CC(c1cc2cc(C(F)(F)F)ccc2o1)N1CCN(C(=O)CO[C@H]2CC[C@H](N(C)c3ccc([N+](=O)[O-])c(C(F)(F)F)c3)CC2)CC1` (stereo partly drawn) [Compound 257, 2-[[4-[methyl[4-nitro-3-(trifluoromethyl)phenyl]amino]cyclohexyl]oxy]-1-(4-[1-[5-(trifluoro-methyl)-1-benzofuran-2-yl]ethyl]piperazin-1-yl)ethan-1-one] was tested. Which inhibition at 5 µg/mL [1] did it give?
Answer: ≥ 90%

Question: And the EC50 [2]?
Answer: < 5 mg/L

Question: For `O=C(CO[C@H]1CC[C@H](Nc2ccc([N+](=O)[O-])c(C(F)(F)F)c2)CC1)N1CCN(Cc2cc3cc(F)ccc3o2)CC1` [Compound 179, 1-[4-[(5-fluoro-1-benzofuran-2-yl)methyl]piperazin-1-yl]-2-[(4-[[4-nitro-3-(trifluoromethyl)phenyl]amino]cyclohexyl)oxy]ethan-1-one], which inhibition at 5 µg/mL [1] is on record?
Answer: ≥ 90%

Question: And the EC50 [2]?
Answer: < 1 mg/L

Question: With `CC(CN1CCN(c2ccc3cc(F)ccc3n2)CC1)C(=O)N1CCC(Nc2ccc([N+](=O)[O-])c(C(F)(F)F)c2)CC1` (stereo not drawn) [Compound 100, 3-[4-(6-fluoroquinolin-2-yl)piperazin-1-yl]-2-methyl-1-(4-[[4-nitro-3-(trifluoromethyl)phenyl]amino]piperidin-1-yl)propan-1-one] as the compound, how does the inhibition at 5 µg/mL [1] read?
Answer: ≥ 90%

Question: And the EC50 [2]?
Answer: < 5 mg/L

Question: What does the source list for `N#Cc1ccc(N[C@H]2CC[C@H](OCC(=O)N3CCN(Cc4oc5ccc(C(F)(F)F)cc5c4Cl)CC3)CC2)cc1C(F)(F)F` [Compound 305, 4-(4-{2-[4-(3-chloro-5-trifluoromethyl-benzofuran-2-ylmethyl)-piperazin-1-yl]-2-oxo-ethoxy}-cyclohexylamino)-2-trifluoromethyl-benzonitrile]?
Answer: inhibition at 5 µg/mL [1]: ≥ 90%; EC50 [2]: < 0.1 mg/L

Question: For `O=C(CO[C@H]1CC[C@H](Nc2ccc([N+](=O)[O-])c(C(F)(F)F)c2)CC1)N1CCN(c2cc3cc(F)ccc3s2)CC1` [Compound 236, 1-(4-(5-fluorobenzo[b]thiophen-2-yl)piperazin-1-yl)-2-((4-((4-nitro-3-(trifluoromethyl)phenyl)amino)cyclohexyl)oxy)ethanone], which inhibition at 5 µg/mL [1] is on record?
Answer: ≥ 90%

Question: What about the EC50 [2] of the same compound?
Answer: < 1 mg/L

Question: With `N#Cc1ccc(N[C@H]2CC[C@H](OCC(=O)N3CCN(CC4Cc5cc(F)ccc5O4)CC3)CC2)cc1C(F)(F)F` (stereo partly drawn) [Compound 83] as the compound, how does the inhibition at 5 µg/mL [1] read?
Answer: ≥ 90%

Question: What about the EC50 [2] of the same compound?
Answer: < 5 mg/L

Question: Which inhibition at 5 µg/mL [1] does the source give for `O=C(CO[C@H]1CC[C@H](Nc2ccc([N+](=O)[O-])c(C(F)(F)F)c2)CC1)N1CCN(c2ccc3cc(Cl)ccc3c2)CC1` [Compound 233, 1-[4-(6-chloro-2-naphthyl)piperazin-1-yl]-2-[4-[4-nitro-3-(trifluoromethyl)anilino]cyclohexoxy]ethanone] here?
Answer: ≥ 90%

Question: And the EC50 [2]?
Answer: < 1 mg/L

Question: Which results are given for `O=C(CO[C@H]1CC[C@H](Nc2ccc([N+](=O)[O-])c(C(F)(F)F)c2)CC1)N1CCN(C(=O)c2cc3cc(Cl)ccc3o2)CC1` [Compound 181, 1-[4-[(5-chloro-1-benzofuran-2-yl)carbonyl]piperazin-1-yl]-2-[(4-[[4-nitro-3-(trifluoromethyl)phenyl]amino]cyclohexyl)oxy]ethan-1-one]?
Answer: inhibition at 5 µg/mL [1]: ≥ 90%; EC50 [2]: < 1 mg/L

Question: Which inhibition at 5 µg/mL [1] does the source give for `CC(CN1CCN(c2ccc3ccccc3c2)CC1)C(=O)N1CCC(Nc2ccc([N+](=O)[O-])c(C(F)(F)F)c2)CC1` (stereo not drawn) [Compound 13, 2-methyl-3-[4-(naphthalen-2-yl)piperazin-1-yl]-1-(4-[[4-nitro-3-(trifluoromethyl)phenyl]amino]piperidin-1-yl)propan-1-one] here?
Answer: ≥ 90%

Question: What about the EC50 [2] of the same compound?
Answer: < 1 mg/L

Question: Which results are given for `O=C(NCCO[C@H]1CC[C@H](Nc2ccc([N+](=O)[O-])c(C(F)(F)F)c2)CC1)C(=O)NCC1Cc2cc(Cl)ccc2O1` (stereo partly drawn) [Compound 218, N^1-[(5-chloro-2,3-dihydro-1-benzofuran-2-yl)methyl]-N^2-[2-[(4-[[4-nitro-3-(trifluoromethyl)phenyl]amino]cyclohexyl)oxy]ethyl]ethanediamide]?
Answer: inhibition at 5 µg/mL [1]: ≥ 90%; EC50 [2]: < 1 mg/L

Question: Which inhibition at 5 µg/mL [1] does the source give for `O=C(NCCO[C@H]1CC[C@H](Nc2ccc([N+](=O)[O-])c(C(F)(F)F)c2)CC1)C(=O)NCC1Cc2ccccc2O1` (stereo partly drawn) [Compound 216] here?
Answer: ≥ 90%

Question: What about the EC50 [2] of the same compound?
Answer: < 1 mg/L

Question: For `CC(CN1CCN(c2ccc3cc(Cl)ccc3n2)CC1)C(=O)N1CCC(Nc2ccc([N+](=O)[O-])c(C(F)(F)F)c2)CC1` (stereo not drawn) [Compound 93, 3-[4-(6-chloroquinolin-2-yl)piperazin-1-yl]-2-methyl-1-(4-[[4-nitro-3-(trifluoromethyl)phenyl]amino]piperidin-1-yl)propan-1-one], which inhibition at 5 µg/mL [1] is on record?
Answer: ≥ 90%

Question: What about the EC50 [2] of the same compound?
Answer: < 5 mg/L

Question: Which results are given for `Cc1cc(N2CCN(C(=O)CO[C@H]3CC[C@H](Nc4ccc([N+](=O)[O-])c(C(F)(F)F)c4)CC3)CC2)nc2ccccc12` [Compound 98, 1-[4-(4-methylquinolin-2-yl)piperazin-1-yl]-2-[(4-[[4-nitro-3-(trifluoromethyl)phenyl]amino]cyclohexyl)oxy]ethan-1-one]?
Answer: inhibition at 5 µg/mL [1]: ≥ 90%; EC50 [2]: < 5 mg/L

Question: For `N#Cc1ccc(NC2CCN(C(=O)CCCN3CCN(c4ccc5cc(F)ccc5n4)CC3)CC2)cc1C(F)(F)F` [Compound 103, 4-[(1-[4-[4-(6-fluoroquinolin-2-yl)piperazin-1-yl]butanoyl]piperidin-4-yl)amino]-2-(trifluoromethyl)benzonitrile], which inhibition at 5 µg/mL [1] is on record?
Answer: ≥ 90%

Question: And the EC50 [2]?
Answer: < 5 mg/L

Question: Which inhibition at 5 µg/mL [1] does the source give for `O=C(CO[C@H]1CC[C@H](Nc2ccc([N+](=O)[O-])c(C(F)(F)F)c2)CC1)N1CCN(c2ccc3ccccc3n2)CC1` [Compound 88, 2-((1R,4R)-4-(4-nitro-3-(trifluoromethyl)phenylamino)cyclohexyloxy)-1-(4-(quinolin-2-yl)piperazin-1-yl)ethanone] here?
Answer: ≥ 90%

Question: What about the EC50 [2] of the same compound?
Answer: < 5 mg/L

Question: Which inhibition at 5 µg/mL [1] does the source give for `CC(c1oc2ccc(C(F)(F)F)cc2c1Cl)N1CCN(C(=O)CO[C@H]2CC[C@H](Nc3ccc([N+](=O)[O-])c(C(F)(F)F)c3)CC2)CC1` (stereo partly drawn) [Compound 255, 2-1-(4-[1-[3-chloro-5-(trifluoromethyl)-1-benzofuran-2-yl]ethyl]piperazin-1-yl)-2-[[4-[[4-nitro-3-(trifluoromethyl)phenyl]amino]cyclohexyl]oxy]ethan-1-one] here?
Answer: ≥ 90%

Question: What about the EC50 [2] of the same compound?
Answer: < 1 mg/L

Question: With `Cc1cc(N2CCN(C(=O)CO[C@H]3CC[C@H](Nc4ccc([N+](=O)[O-])c(C(F)(F)F)c4)CC3)CC2)nc2ccc(Br)cc12` [Compound 277, 1-[4-(6-bromo-4-methyl-2-quinolyl)piperazin-1-yl]-2-[4-[4-nitro-3-(trifluoromethyl)anilino]cyclohexoxy]ethanone] as the compound, how does the inhibition at 5 µg/mL [1] read?
Answer: ≥ 90%

Question: And the EC50 [2]?
Answer: < 5 mg/L

Question: `O=C(NCCOc1ccc(Nc2ccc([N+](=O)[O-])c(C(F)(F)F)c2)cc1)C(=O)NCC1Cc2cc(C(F)(F)F)ccc2O1` (stereo not drawn) [Compound 227, N^1-(2-(4-(4-nitro-3-(trifluoromethyl)phenylamino)phenoxy)ethyl)-N^2-((5-(trifluoromethyl)-2,3-dihydrobenzofuran-2-yl)methyl)ethanediamide] was tested. Which inhibition at 5 µg/mL [1] did it give?
Answer: ≥ 90%

Question: And the EC50 [2]?
Answer: < 1 mg/L

Question: For `O=C(CO[C@H]1CC[C@H](Nc2ccc([N+](=O)[O-])c(C(F)(F)F)c2)CC1)N1CCc2cc(F)ccc2C1` [Compound 193, 1-(6-fluoro-1,2,3,4-tetrahydroisoquinolin-2-yl)-2-[[4-[[4-nitro-3-(trifluoromethyl)phenyl]amino]cyclohexyl]oxy]ethan-1-one], which EC50 [2] is on record?
Answer: < 1 mg/L

Question: Which EC50 [2] does the source give for `O=C(CO[C@H]1CC[C@H](Nc2ccc([N+](=O)[O-])c(C(F)(F)F)c2)CC1)N1CCN(c2ccnc3ccccc23)CC1` [Compound 160, 2-[(4-[[4-nitro-3-(trifluoromethyl)phenyl]amino]cyclohexyl)oxy]-1-[4-(quinolin-4-yl)piperazin-1-yl]ethan-1-one] here?
Answer: < 5 mg/L

Question: With `N#Cc1ccc(NC2CCN(C(=O)CCCN3CCN(c4ccc5ccccc5c4)CC3)CC2)cc1C(F)(F)F` [Compound 15, 4-[(1-[4-[4-(naphthalen-2-yl)piperazin-1-yl]butanoyl]piperidin-4-yl)amino]-2-(trifluoromethyl)benzonitrile] as the compound, how does the EC50 [2] read?
Answer: < 5 mg/L

Question: How did the EC50 [2] turn out when `O=C(CO[C@H]1CC[C@H](Nc2ccc([N+](=O)[O-])c(C(F)(F)F)c2)CC1)N1CCN(c2ccc(Cl)c3ccccc23)CC1` [Compound 161, 1-[4-(4-chloronaphthalen-1-yl)piperazin-1-yl]-2-[(4-[[4-nitro-3-(trifluoromethyl)phenyl]amino]cyclohe-xyl)oxy]ethan-1-one] was run?
Answer: < 5 mg/L

Question: For `O=C(CO[C@H]1CC[C@H](Nc2ccc([N+](=O)[O-])c(C(F)(F)F)c2)CC1)N1CCN(c2cccc3ccccc23)CC1` [Compound 20, 1-[4-(naphthalen-1-yl)piperazin-1-yl]-2-[(4-[[4-nitro-3-(trifluoromethyl)phenyl]amino]cyclohexyl)oxy]ethan-1-one], which EC50 [2] is on record?
Answer: < 1 mg/L

Question: For `N#Cc1ccc(NC2CCN(C(=O)CCCN3CCN(c4ccc5ccccc5n4)CC3)CC2)cc1C(F)(F)F` [Compound 94, 4-[(1-[4-[4-(quinolin-2-yl)piperazin-1-yl]butanoyl]piperidin-4-yl)amino]-2-(trifluoromethyl)benzonitrile], which EC50 [2] is on record?
Answer: < 5 mg/L
